Experimental data as given in publication PMC9000336, “Development of Bicyclo[3.1.0]hexane-Based A3 Receptor Ligands: Closing the Gaps in the Structure–Affinity Relationships” (Molecules, 2022).

Legend:
[1] = target: T1, human adenosine A1 receptor (Homo sapiens, UniProt P30542); test: Radioligand displacement assay, human adenosine A1 receptor ([3H]DPCPX, CHOhA1R membranes); type: binding; settings: n = 3; for Ki: footnote a: tested at 1 µM, read-out: A1 Ki (bound, footnote a); for A1 displacement at 1 µM: footnote a: test compound 1 µM
T1 construct: expressed in transfected cells; host or cells: CHO cells (CHOhA1R), gift of Prof; S. J. Hill; membrane preparation
T1 sequence (P30542 1-326): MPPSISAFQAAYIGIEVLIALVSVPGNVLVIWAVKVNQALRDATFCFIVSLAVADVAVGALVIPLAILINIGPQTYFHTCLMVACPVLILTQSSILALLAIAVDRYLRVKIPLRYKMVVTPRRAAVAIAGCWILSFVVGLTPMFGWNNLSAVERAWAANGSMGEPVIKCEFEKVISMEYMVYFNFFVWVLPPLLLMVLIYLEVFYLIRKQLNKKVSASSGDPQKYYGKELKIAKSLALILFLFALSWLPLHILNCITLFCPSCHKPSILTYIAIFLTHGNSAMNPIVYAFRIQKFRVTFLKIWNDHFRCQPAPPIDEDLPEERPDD
Description: Chinese hamster ovary (CHO) cells stably expressing the human adenosine A1 receptor (CHOhA1R) were kindly provided by Prof. S. J. Hill and CHO cells stably expressing the human adenosine A3 receptor (CHOhA3R) were a gift from Dr. K.-N. Klotz (University of Würzburg, Germany). Chinese hamster ovary cells stably expressing the human A1-receptor (CHOhA1R) or the human A3-receptor (CHOhA3R) were grown in Dulbecco’s Modified Eagle’s Medium (DMEM) and Ham’s F12 medium (1:1) supplemented with 10% (v/v) newborn calf serum, 50 µg/mL streptomycin, 50 IU/mL penicillin, and 200 µg/mL G418 at 37 °C and 5% CO2. […] All cells were grown to 80–90% confluency and detached from plates by scraping them into 5 mL phosphate-buffered saline. Detached cells were collected and centrifuged at 200 g for 5 min. Pellets derived from 100 15 cm Ø plates were pooled and resuspended in 70 mL of ice-cold 50 mM tris(hydroxymethyl)aminomethane (Tris)-HCl buffer, pH 7.4. A Heidolph Diax 900 homogenizer was used to homogenize the cell suspension. Membranes and the cytosolic fraction were separated by centrifugation at 100,000 g in a Beckman Optima LE-80 K ultracentrifuge (Beckman Coulter, Fullerton, CA, USA) at 4 °C for 20 min. The pellet was resuspended in 35 mL of the Tris-HCl buffer, and the homogenization and centrifugation steps were repeated. Tris-HCl buffer (25 mL) was used to resuspend the pellet, and adenosine deaminase (ADA) was added (0.8 U/mL) to break down endogenous adenosine. Membranes were stored in 250 µL and 500 µL aliquots at −80 °C. Total protein concentrations were measured using the bicinchoninic acid (BCA) method.
A1 Receptor: Membrane aliquots containing 5 µg (CHOhA1R) protein were incubated in a total volume of 100 µL assay buffer (50 mM Tris-HCl, pH 7.4) at 25 °C for 1 h. […] Nonspecific binding was determined in the presence of 100 µM N^6-cyclopentyladenosine (CPA). Incubations were terminated by rapid vacuum filtration to separate the bound and free radioligand through prewetted 96-well GF/B filter plates using a PerkinElmer Filtermate-harvester (Perkin Elmer, Groningen, the Netherlands). Filters were subsequently washed 12 times with ice-cold 50 mM Tris-HCl, pH 7.4.
(§1) The plates of all four adenosine receptor assays were dried at 55 °C after which MicroscintTM-20-cocktail was added (Perkin Elmer, Groningen, The Netherlands).
(§2) All experimental data were analyzed using the non-linear regression curve fitting program GraphPad Prism 7.0 (GraphPad Software Inc., San Diego, CA, USA). IC50 values obtained from competition displacement binding data were converted into Ki values using the Cheng–Prusoff equation.

[2] = target: T2, human adenosine A2A receptor (Homo sapiens, UniProt P29274); test: Radioligand displacement assay, human adenosine A2A receptor ([3H]ZM241385, HEK293hA2AR membranes); type: binding; settings: footnote a: tested at 1 µM; n = 3; read-out: A2A Ki (bound, footnote a)
T2 construct: expressed in transfected cells; host or cells: HEK293 cells (HEK293hA2AR), from Dr. J. Wang (Biogen/IDEC); membrane preparation
T2 sequence (P29274 whole entry): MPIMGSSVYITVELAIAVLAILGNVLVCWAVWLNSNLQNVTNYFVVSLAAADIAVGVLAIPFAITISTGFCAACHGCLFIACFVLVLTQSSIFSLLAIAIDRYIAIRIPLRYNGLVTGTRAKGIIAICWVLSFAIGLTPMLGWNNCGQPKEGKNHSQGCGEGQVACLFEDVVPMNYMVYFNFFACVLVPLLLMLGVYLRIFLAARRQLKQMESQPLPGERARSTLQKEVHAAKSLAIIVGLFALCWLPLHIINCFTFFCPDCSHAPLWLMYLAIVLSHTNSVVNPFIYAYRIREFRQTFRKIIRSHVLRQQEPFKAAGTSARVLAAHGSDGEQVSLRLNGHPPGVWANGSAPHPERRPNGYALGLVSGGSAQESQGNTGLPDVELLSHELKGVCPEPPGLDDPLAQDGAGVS
Description: Human embryonic kidney 293 cells stably expressing the human adenosine A2A receptor (HEK293hA2AR) were kindly provided by Dr. J. Wang (Biogen/IDEC, Cambridge, MA, USA), CHO-spap cells stably expressing the wild-type (WT) hA2B receptor (CHO-spap-hA2BR) were kindly provided by S. J. Dowell (GlaxoSmithKline, Brentfort, UK).
All cells were grown to 80–90% confluency and detached from plates by scraping them into 5 mL phosphate-buffered saline. Detached cells were collected and centrifuged at 200 g for 5 min. Pellets derived from 100 15 cm Ø plates were pooled and resuspended in 70 mL of ice-cold 50 mM tris(hydroxymethyl)aminomethane (Tris)-HCl buffer, pH 7.4. A Heidolph Diax 900 homogenizer was used to homogenize the cell suspension. Membranes and the cytosolic fraction were separated by centrifugation at 100,000 g in a Beckman Optima LE-80 K ultracentrifuge (Beckman Coulter, Fullerton, CA, USA) at 4 °C for 20 min. The pellet was resuspended in 35 mL of the Tris-HCl buffer, and the homogenization and centrifugation steps were repeated. Tris-HCl buffer (25 mL) was used to resuspend the pellet, and adenosine deaminase (ADA) was added (0.8 U/mL) to break down endogenous adenosine. Membranes were stored in 250 µL and 500 µL aliquots at −80 °C. Total protein concentrations were measured using the bicinchoninic acid (BCA) method.
Nonspecific binding was determined in the presence of 100 µM adenosine-5-N-ethyluronamide (NECA). Incubations were terminated by rapid vacuum filtration to separate the bound and free radioligand through prewetted 96-well GF/B filter plates using a PerkinElmer Filtermate-harvester (Perkin Elmer, Groningen, The Netherlands). Filters were subsequently washed 12 times with ice-cold 50 mM Tris-HCl, pH 7.4.
as §1, §2

Compound | Ki [1] [nM] | Ki [2] [nM] | A1 displacement at 1 µM [1] [% ^a]
CSc1nc(N)c2ncn([C@H]3[C@H](O)[C@H](O)[C@]4(Cn5cc(C(=O)O)nn5)C[C@H]34)c2n1 [Compound 44, 1-{[(1R,2R,3S,4R,5S)-4-(6-Amino-2-methylthio-9H-purin-9-yl)-2,3-dihydroxybicyclo[3.1.0]hex-1-yl]methyl}-1H-1,2,3-triazole-4-carboxylic acid] | > 1000 | > 1000 | 
CSc1nc(N)c2ncn([C@H]3[C@H](O)[C@H](O)[C@]4(Cn5cc(CC(=O)O)nn5)C[C@H]34)c2n1 [Compound 45, 2-(1-{[(1R,2R,3S,4R,5S)-4-(6-Amino-2-methylthio-9H-purin-9-yl)-2,3-dihydroxybicyclo[3.1.0]hex-1-yl]methyl}-1H-1,2,3-triazol-4-yl)acetic acid] | > 1000 | > 1000 | 
CSc1nc(N)c2ncn([C@H]3[C@H](O)[C@H](O)[C@]4(Cn5cc(CCC(=O)O)nn5)C[C@H]34)c2n1 [Compound 46] | > 1000 | > 1000 | 
CCN(CC)CC.CSc1nc(N)c2ncn([C@H]3[C@H](O)[C@H](O)[C@]4(CNc5c(O)c(=O)c5=O)C[C@H]34)c2n1 [Compound 47, Triethylammonium 2-{[(1R,2R,3S,4R,5S)-4-(6-Amino-2-methylthio-9H-purin-9-yl)-2,3-dihydroxybicyclo[3.1.0]hex-1-yl]methyl}amino-3,4-dioxocyclobut-1-en-1-olate] |  | > 1000 | 1
CCN(CC)CC.CSc1nc(N)c2ncn([C@H]3[C@H](O)[C@H](O)[C@]4(CNS(=O)(=O)CC(=O)O)C[C@H]34)c2n1 [Compound 48, Triethylammonium 2-(N-{[(1R,2R,3S,4R,5S)-4-(6-amino-2-methylthio-9H-purin-9-yl)-2,3-dihydroxybicyclo[3.1.0]hex-1-yl]methyl}sulfamoyl)acetate] |  | > 1000 | 3
